“Also recorded” adds a separate entry of the source. Ends that are not written are not given here.
Legend:
[1] = system: Raw264.7 macrophage cells; test: in vitro; type: cell-based, murine; settings: Example 1 results
in vitro = type: cell-based, murine; settings: mouse

Compound | bioactivity / inhibitory activity relative to 7-mer (in words) [1] | viability at 24 h, 20 μM (in vitro; Raw264.7 cell viability) | bioactivity / inhibitory activity relative to 7-mer (in words) ([1]; listed as 7-mer (D→N)) | viability at 24 h, 20 μM (in vitro; Rar264.7 cell viability)
CC(=O)N[C@@H](Cc1ccccc1)C(=O)N[C@@H](CC(C)C)C(=O)N[C@@H](Cc1ccc(O)cc1)C(=O)N[C@@H](CCCNC(=N)N)C(=O)N[C@H](C(=O)N[C@@H](CCCNC(=N)N)C(=O)N[C@@H](CO)C(N)=O)C(C)C [7-mer (D→F), NH2-Phe-Leu-Tyr-Arg-Val-Arg-Ser-COOH] | could sustain 7-mer bioactivity, only partly; also recorded: relatively the same bioactivity that is similar to the 7-mer | 61.9 ± 4.91% |  | 
CC(=O)N[C@@H](CC(C)C)C(=O)N[C@@H](CC(C)C)C(=O)N[C@@H](Cc1ccc(O)cc1)C(=O)N[C@@H](CCCNC(=N)N)C(=O)N[C@H](C(=O)N[C@@H](CCCNC(=N)N)C(=O)N[C@@H](CO)C(N)=O)C(C)C [7-mer (D→L), NH2-Leu-Leu-Tyr-Arg-Val-Arg-Ser-COOH] | could sustain 7-mer bioactivity, only partly; also recorded: relatively the same bioactivity that is similar to the 7-mer | 57.6 ± 2.65% |  | 
CC(=O)N[C@H](C(=O)N[C@@H](CC(C)C)C(=O)N[C@@H](Cc1ccc(O)cc1)C(=O)N[C@@H](CCCNC(=N)N)C(=O)N[C@H](C(=O)N[C@@H](CCCNC(=N)N)C(=O)N[C@@H](CO)C(N)=O)C(C)C)C(C)C [7-mer (D→V), NH2-Val-Leu-Tyr-Arg-Val-Arg-Ser-COOH] | relatively the same bioactivity that is similar to the 7-mer | 56.8 ± 3.53% | could sustain 7-mer bioactivity, only partly | 
CC(=O)N[C@@H](CC(=O)O)C(=O)N[C@@H](CC(C)C)C(=O)N[C@@H](Cc1ccc(O)cc1)C(=O)N[C@@H](CCCNC(=N)N)C(=O)N[C@H](C(=O)N[C@@H](CCC(N)=O)C(=O)N[C@@H](CO)C(N)=O)C(C)C [7-mer (R2→Q), NH2-Asp-Leu-Tyr-Arg-Val-Gln-Ser-COOH] | could sustain 7-mer bioactivity, only partly | 68.4 ± 1.25% |  | 
CC(=O)N[C@@H](CC(=O)O)C(=O)N[C@@H](CC(C)C)C(=O)N[C@@H](Cc1ccc(O)cc1)C(=O)N[C@@H](CCCNC(=N)N)C(=O)N[C@@H](CC(C)C)C(=O)N[C@@H](CCCNC(=N)N)C(=O)N[C@@H](CO)C(N)=O [7-mer (V→L), NH2-Asp-Leu-Tyr-Arg-Leu-Arg-Ser-COOH] | could sustain 7-mer bioactivity, only partly; also recorded: relatively the same bioactivity that is similar to the 7-mer | 61.1 ± 3.96% |  | 
CC(=O)N[C@H](CC(=O)O)C(=O)N[C@@H](CC(C)C)C(=O)N[C@@H](Cc1ccc(O)cc1)C(=O)N[C@@H](CCCNC(=N)N)C(=O)N[C@H](C(=O)N[C@@H](CCCNC(=N)N)C(=O)N[C@@H](CO)C(N)=O)C(C)C [7-mer DD, NH2-(D-Asp)-Leu-Tyr-Arg-Val-Arg-Ser-COOH] |  |  |  | 52.1 ± 1.45%
CC(=O)N[C@@H](CC(=O)O)C(=O)N[C@H](CC(C)C)C(=O)N[C@@H](Cc1ccc(O)cc1)C(=O)N[C@@H](CCCNC(=N)N)C(=O)N[C@H](C(=O)N[C@@H](CCCNC(=N)N)C(=O)N[C@@H](CO)C(N)=O)C(C)C [7-mer DL, NH2-Asp-(D-Leu)-Tyr-Arg-Val-Arg-Ser-COOH] | lose its biological activity |  |  | 101 ± 1.48%
CC(=O)N[C@@H](CC(=O)O)C(=O)N[C@@H](CC(C)C)C(=O)N[C@@H](Cc1ccc(O)cc1)C(=O)N[C@@H](CCCNC(=N)N)C(=O)N[C@H](C(=O)N[C@H](CCCNC(=N)N)C(=O)N[C@@H](CO)C(N)=O)C(C)C [7-mer DR2, NH2-Asp-(D-Leu)-Tyr-Arg-Val-(D-Arg)-Ser-COOH] | lose its biological activity |  |  | 103 ± 2.51%
CC(=O)N[C@@H](CC(=O)O)C(=O)N[C@@H](CC(C)C)C(=O)N[C@@H](Cc1ccc(O)cc1)C(=O)N[C@H](CCCNC(=N)N)C(=O)N[C@H](C(=O)N[C@@H](CCCNC(=N)N)C(=O)N[C@@H](CO)C(N)=O)C(C)C [7-mer DR, NH2-Asp-Leu-Tyr-(D-Arg)-Val-Arg-Ser-COOH] | lose its biological activity |  |  | 100 ± 2.58%
CC(=O)N[C@@H](CC(=O)O)C(=O)N[C@@H](CC(C)C)C(=O)N[C@@H](Cc1ccc(O)cc1)C(=O)N[C@@H](CCCNC(=N)N)C(=O)N[C@H](C(=O)N[C@@H](CCCNC(=N)N)C(=O)N[C@H](CO)C(N)=O)C(C)C [7-mer DS, NH2-Asp-Leu-Tyr-Arg-Val-Arg-(D-Ser)-COOH] | lose its biological activity |  |  | 107 ± 2.23%
CC(=O)N[C@@H](CC(=O)O)C(=O)N[C@@H](CC(C)C)C(=O)N[C@@H](Cc1ccc(O)cc1)C(=O)N[C@@H](CCCNC(=N)N)C(=O)N[C@@H](C(=O)N[C@@H](CCCNC(=N)N)C(=O)N[C@@H](CO)C(N)=O)C(C)C [7-mer DV, NH2-Asp-Leu-Tyr-Arg-(D-Val)-Arg-Ser-COOH] |  |  |  | 57.9 ± 6.2%
CC(=O)N[C@@H](CC(=O)O)C(=O)N[C@@H](CC(C)C)C(=O)N[C@H](Cc1ccc(O)cc1)C(=O)N[C@@H](CCCNC(=N)N)C(=O)N[C@H](C(=O)N[C@@H](CCCNC(=N)N)C(=O)N[C@@H](CO)C(N)=O)C(C)C [7-mer DY, NH2-Asp-Leu-(D-Tyr)-Arg-Val-Arg-Ser-COOH] | lose its biological activity |  |  | 107.5 ± 0.63%
CC(=O)N[C@@H](C)C(=O)N[C@@H](CC(C)C)C(=O)N[C@@H](Cc1ccc(O)cc1)C(=O)N[C@@H](CCCNC(=N)N)C(=O)N[C@H](C(=O)N[C@@H](CCCNC(=N)N)C(=O)N[C@@H](CO)C(N)=O)C(C)C [7-mer Da, NH2-Ala-Leu-Tyr-Arg-Val-Arg-Ser-COOH] | could sustain the inhibitory activity | 52.9 ± 0.84% |  | 
CC[C@H](C)[C@H](NC(=O)[C@H](CC(=O)O)NC(C)=O)C(=O)N[C@@H](Cc1ccc(O)cc1)C(=O)N[C@@H](CCCNC(=N)N)C(=O)N[C@H](C(=O)N1CCC[C@H]1C(=O)N[C@@H](CO)C(N)=O)C(C)C [7-mer IP, NH2-Asp-Ile-Tyr-Arg-Val-Pro-Ser-COOH] | could sustain 7-mer bioactivity, only partly | 81.7 ± 4.5% |  | 
CC(=O)N[C@@H](CC(=O)O)C(=O)N[C@@H](CC(C)C)C(=O)N[C@@H](Cc1ccc(O)cc1)C(=O)N[C@@H](CCCCN)C(=O)N[C@H](C(=O)N1CCC[C@H]1C(=O)N[C@@H](CO)C(N)=O)C(C)C [7-mer KP, NH2-Asp-Leu-Tyr-Lys-Val-Pro-Ser-COOH] | could sustain 7-mer bioactivity, only partly | 81.2 ± 3.43% |  | 
CC(=O)N[C@@H](CC(=O)O)C(=O)N[C@@H](C)C(=O)N[C@@H](Cc1ccc(O)cc1)C(=O)N[C@@H](CCCNC(=N)N)C(=O)N[C@H](C(=O)N[C@@H](CCCNC(=N)N)C(=O)N[C@@H](CO)C(N)=O)C(C)C [7-mer La, NH2-Asp-Ala-Tyr-Arg-Val-Arg-Ser-COOH] | could sustain the inhibitory activity | 57.4 ± 1.71% |  | 
CSCC[C@H](NC(=O)[C@H](CCCNC(=N)N)NC(=O)[C@H](Cc1ccc(O)cc1)NC(=O)[C@H](CC(C)C)NC(=O)[C@H](CC(=O)O)NC(C)=O)C(=O)N[C@@H](CCCCN)C(=O)N[C@@H](CO)C(N)=O [7-mer MK, NH2-Asp-Leu-Tyr-Arg-Met-Lys-Ser-COOH] | could sustain 7-mer bioactivity, only partly | 81.4 ± 0.64% |  | 
CC(=O)N[C@@H](CC(N)=O)C(=O)N[C@H](C(=O)N[C@@H](Cc1ccc(O)cc1)C(=O)N[C@@H](CCCNC(=N)N)C(=O)N[C@H](C(=O)N[C@@H](CCCNC(=N)N)C(=O)N[C@@H](CO)C(N)=O)C(C)C)C(C)C [7-mer NV, NH2-Asn-Val-Tyr-Arg-Val-Arg-Ser-COOH] | could sustain 7-mer bioactivity, only partly | 74.8 ± 1.73% |  | 
CC(=O)N[C@@H](CC(=O)O)C(=O)N[C@@H](CC(C)C)C(=O)N[C@@H](Cc1ccc(O)cc1)C(=O)N[C@@H](CCCNC(=N)N)C(=O)N[C@@H](CCC(N)=O)C(=O)N[C@@H](CCCCN)C(=O)N[C@@H](CO)C(N)=O [7-mer QK, NH2-Asp-Leu-Tyr-Arg-Gln-Lys-Ser-COOH] | could sustain 7-mer bioactivity, only partly | 77.7 ± 3.02% |  | 
CC(=O)N[C@@H](CC(=O)O)C(=O)N[C@@H](CC(C)C)C(=O)N[C@@H](Cc1ccc(O)cc1)C(=O)N[C@@H](CCCNC(=N)N)C(=O)N[C@H](C(=O)N[C@@H](C)C(=O)N[C@@H](CO)C(N)=O)C(C)C [7-mer R2a, NH2-Asp-Leu-Tyr-Arg-Val-Ala-Ser-COOH] |  | 94.6 ± 1.65% |  | 
CC(=O)N[C@@H](CC(=O)O)C(=O)N[C@@H](CC(C)C)C(=O)N[C@@H](Cc1ccc(O)cc1)C(=O)N[C@@H](C)C(=O)N[C@H](C(=O)N[C@@H](CCCNC(=N)N)C(=O)N[C@@H](CO)C(N)=O)C(C)C [7-mer Ra, NH2-Asp-Leu-Tyr-Ala-Val-Arg-Ser-COOH] |  | 99.5 ± 1.51% |  | 
CC(=O)N[C@@H](CC(=O)O)C(=O)N[C@@H](CC(C)C)C(=O)N[C@@H](Cc1ccc(O)cc1)C(=O)N[C@@H](CCCNC(=N)N)C(=O)N[C@H](C(=O)N[C@@H](CCCNC(=N)N)C(=O)N[C@@H](C)C(N)=O)C(C)C [7-mer Sa, NH2-Asp-Leu-Tyr-Arg-Val-Arg-Ala-COOH] |  | 93.1 ± 2.47% |  | 
CC(=O)N[C@@H](CC(=O)O)C(=O)N[C@@H](CC(C)C)C(=O)N[C@@H](Cc1ccc(O)cc1)C(=O)N[C@@H](CCCNC(=N)N)C(=O)N[C@@H](C)C(=O)N[C@@H](CCCNC(=N)N)C(=O)N[C@@H](CO)C(N)=O [7-mer Va, NH2-Asp-Leu-Tyr-Arg-Ala-Arg-Ser-COOH] |  | 97.7 ± 0.6% |  | 
CC(=O)N[C@@H](CC(=O)O)C(=O)N[C@@H](CC(C)C)C(=O)N[C@@H](C)C(=O)N[C@@H](CCCNC(=N)N)C(=O)N[C@H](C(=O)N[C@@H](CCCNC(=N)N)C(=O)N[C@@H](CO)C(N)=O)C(C)C [7-mer Ya, NH2-Asp-Leu-Ala-Arg-Val-Arg-Ser-COOH] |  | 97.6 ± 0.56% |  | 
NH2-Asp-Leu-Tyr-Arg-Val-Arg-COOH (DLYRVR; not fully specified (N-terminus, C-terminus); printed as NH2-Asp-Leu-Tyr-Arg-Val-Arg-COOH) [control peptide, serine residue of the 7-mer deleted, reference compound] | does not possess any biological function |  |  | 
